# Literature values as cited in patent publication US20230381267A1, “OXYTOCIN TREATMENT FOR HYPERMOBILE EHLERS-DANLOS SYNDROME” (Baylor College of Medicine, priority 2020, published 2023).
# Assays:
# [1] = intranasal, individuals with tension-type headache and migraine
# [2] = humans, preliminary research
# [3] = IV administration, irritable bowel syndrome
smiles,measurement,setting,value
CC[C@H](C)[C@@H]1NC(=O)[C@H](Cc2ccc(O)cc2)NC(=O)[C@@H](N)CSSC[C@@H](C(=O)N2CCC[C@H]2C(=O)N[C@@H](CC(C)C)C(=O)NCC(N)=O)NC(=O)[C@H](CC(N)=O)NC(=O)[C@H](CCC(N)=O)NC1=O [oxytocin],headache relief,[1],relieve headache in a dose-dependent manner
same,pain sensitivity,[2],decreases pain sensitivity
same,average effect (Cohen d),"across central and peripheral modes of administration and type of noxious stimulus (heat, electric)",2.28
same,duration of analgesic effects,after exogenous administration,approximately 1 hour
same,time at which analgesic effects were strongest,after exogenous administration,20 to 30 min
same,animal studies in which oxytocin increased pain tolerance,"systematic review Rash, AguirreCamacho and Campbell 2014",29 of 33
same,effect on pain tolerance,[3],significant effect
